Where a name gives a salt, the structure may show the parent alone.
Tests used:
[1] = target: T1, cloned human 5-HT6 receptor (Homo sapiens, UniProt P50406); assay: 5-HT6 Receptor Binding Assay; conditions: [3H]-lysergic acid diethylamide (LSD) radioligand, membranes of Hela cells containing the cloned human 5-HT6 receptor, SPA beads; estimated IC50 converted to Ki by Cheng-Prusoff
T1 construct: host or cells: HeLa cells (G-418 selection), membrane preparation
Experimental: 5-HT6 Receptor Binding Assay
Growth of Cells and Membrane Preparation
Hela cells containing the cloned human 5-HT6 receptor were acquired from Dr. David R. Sibley's laboratory in National Institute of Health (see Sibley, D. R., J. Neurochemistry, 66, 47-56, 1996). Cells were grown in high glucose Dulbecco's modified Eagle's medium, supplemented with L-glutamine, 0.5% sodium pyruvate, 0.3% penicillin-streptomycin, 0.025% G-418 and 5% Gibco fetal bovine serum and then were harvested, when confluent, in cold phosphate-buffered saline.
Harvested intact cells were washed once in cold phosphate-buffered saline. The cells were pelleted and resuspended in 100 ml of cold 50 mM Tris, 5 mM EDTA and 5 mM EGTA, pH 7.4. Homogenization was with a Vir Tishear generator, 4 cycles for 30 seconds each at setting 50. The homogenized cells were centrifuged at 700 RPM (1000×g) for 10 minutes and the supernatant was removed. The pellet was resuspended in 100 ml of the above buffer and rehomogenized for 2 cycles. The rehomogenized cells were then centrifuged at 700 RPM (1000×g) for 10 minutes and the supernatant was removed. The combined supernatant (200ml) was centrifuged at 23,000 RPM (80,000×g) for 1 hour in a Beckman Rotor (42.1 Ti). The membrane pellet was resupended in 50-8-ml of assay buffer containing HEPES 20 mM, MgCl2 10 mM, NaCl 150 mM, EDTA 1 mM, pH 7.4 and stored frozen in aliqouts at −70° C.
The radioligand binding assay used [^3H]-lysergic acid diethylamide (LSD). The assay was carried out in Wallac 96-well sample plates by the addition of 11 μl of the test sample at the appropriate dilution (the assay employed 11 serial concentrations of samples run in duplicate), 11 μl of radioligand, and 178 μl of a washed mixture of WGA-coated SPA beads and membranes in binding buffer. The plates were shaken for about 5 minutes and then incubated at room temperature for 1 hour. The plates were then loaded into counting cassettes and counted in a Wallac MicroBeta Trilux scintillation counter.
Binding Constant (Ki) Determination
Eleven serial dilutions of test compounds were distributed to assay plates using the PE/Cetus Pro/Pette pipetter. These dilutions were, followed by radioligand and the bead-membrane mixture prepared as described above. The specifically bound cpm obtained were fit to a one-site binding model using GraphPad Prism ver. 2.0. Estimated IC50 values were converted to Ki values using the Cheng-Prusoff equation (Cheng, Y. C. et al., Biochem. Pharmacol., 22, 3099-108, 1973).

T1 sequence (P50406 whole entry): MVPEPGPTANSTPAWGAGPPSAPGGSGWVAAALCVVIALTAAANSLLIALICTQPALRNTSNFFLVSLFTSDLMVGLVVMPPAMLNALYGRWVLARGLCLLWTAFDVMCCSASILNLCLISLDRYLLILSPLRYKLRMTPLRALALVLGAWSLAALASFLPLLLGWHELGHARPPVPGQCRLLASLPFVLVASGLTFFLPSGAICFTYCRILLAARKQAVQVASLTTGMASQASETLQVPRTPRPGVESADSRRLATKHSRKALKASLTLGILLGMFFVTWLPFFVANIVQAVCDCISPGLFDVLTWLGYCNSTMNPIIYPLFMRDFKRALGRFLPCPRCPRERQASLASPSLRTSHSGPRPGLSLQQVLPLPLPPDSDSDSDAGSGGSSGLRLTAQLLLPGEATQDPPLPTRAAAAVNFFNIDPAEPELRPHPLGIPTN

Row | Compound | melting point [°C] | Ki [1] [nM]
1 | NCCOc1cccc2c1c1ccccc1n2Cc1csc2ccc(Cl)cc12 (as salt: methane sulfonate) [Example 50, 2-({9-[(5-Chloro-1-benzothiophen-3-yl)methyl]-9H-carbazol-4-yl}oxy)ethylamine] | > 256 | 
2 | Cc1nc(Cn2c3ccccc3c3c(OCCN)cccc32)cs1 (as salt: methane sulfonate) [Example 51, 2-({9-[(2-Methyl-1,3-thiazol-4-yl)methyl]-9H-carbazol-4-yl}oxy)ethylamine] | 228.5 to 229 | 
3 | CCN(CC)CCOc1cccc2c1c1ccccc1n2Cc1ccccc1 [Example 1, N-{2-[(9-Benzyl-9H-carbazol-4-yl)oxy]ethyl}-N,N-diethylamine] | 79 to 80.5 | 24
4 | CCN(CC)CCOc1cccc2c1c1cccc(Cl)c1n2Cc1ccccc1 [Example 2, N-{2-[(9-Benzyl-8-chloro-9H-carbazol-4-yl)oxy]ethyl}-N,N-diethylamine] | 73.5 to 75 | 6
5 | CCN(CC)CCOc1cccc2c1c1cccc(Cl)c1n2Cc1ccc(F)cc1 [Example 3, N-(2-{[8-Chloro-9-(4-fluorobenzyl)-9H-carbazol-4-yl]oxy}ethyl)-N,N-diethylamine] | 104.5 to 105.5 | 22
6 | CCN(CC)CCOc1cccc2c1c1cccc(F)c1n2Cc1ccccc1 [Example 7, N-{2-[(9-Benzyl-8-fluoro-9H-carbazol-4-yl)oxy]ethyl}-N,N-diethylamine] | 60 to 60.5 | 2.6
7 | CCOC(=O)CCNCCOc1cccc2c1c1ccccc1n2Cc1ccccc1 [Example 25, ethyl 3-({2-[(9-benzyl-9H-carbazol-4-yl)oxy]ethyl}amino)propanoate] |  | 40
8 | c1ccc(Cn2c3ccccc3c3c(OCCNC4CCC4)cccc32)cc1 [Example 26, N-{2-[(9-benzyl-9H-carbazol-4-yl)oxy]ethyl}cyclobutanamine] |  | 47
9 | O=CNCCN1CCN(CCOc2cccc3c2c2ccccc2n3Cc2ccccc2)CC1 [Example 27, 2-(4-{2-[(9-benzyl-9H-carbazol-4-yl)oxy]ethyl}-1-piperazinyl)ethylformamide] |  | 138
10 | c1ccc(Cn2c3ccccc3c3c(OCCNCc4nc5ccccc5[nH]4)cccc32)cc1 [Example 28, N-(1H-benzimidazol-2-ylmethyl)-2-[(9-benzyl-9H-carbazol-4-yl)oxy]-1-ethanamine] |  | 72
11 | OC1CCN(CCOc2cccc3c2c2ccccc2n3Cc2ccccc2)CC1 [Example 29, 1-{2-[(9-benzyl-9H-carbazol-4-yl)oxy]ethyl}-4-piperidinol] |  | 11
12 | CN1CCN(CCOc2cccc3c2c2ccccc2n3Cc2ccccc2)CC1 [Example 30, 9-benzyl-4-[2-(4-methyl-1-piperazinyl)ethoxy]-9H-carbazole] |  | 12
13 | c1ccc(Cn2c3ccccc3c3c(OCCNC4CC4)cccc32)cc1 [Example 31, N-{2-[(9-benzyl-9H-carbazol-4-yl)oxy]ethyl}-N-cyclopropylamine] |  | 21
14 | O=CNCCOc1cccc2c1c1ccccc1n2Cc1ccccc1 [Example 33, N-{2-[(9-benzyl-9H-carbazol-4-yl)oxy]ethyl}formamide] | 161 to 162 | 211
15 | CNCCOc1cccc2c1c1ccccc1n2Cc1ccccc1.O=C(O)/C=C\C(=O)O [Example 34, N-{2-[(9-Benzyl-9H-carbazol-4-yl)oxy]ethyl}-N-methylamine] | 182.5 to 184.5 | 5.7
16 | NCCOc1cccc2c1c1ccccc1n2Cc1ccccc1 [Example 35, 2-[(9-Benzyl-9H-carbazol-4-yl)oxy]ethylamine] |  | 23
17 | COCCNCCOc1cccc2c1c1ccccc1n2Cc1ccccc1.O=C(O)/C=C\C(=O)O [Example 36, N-{2-[(9-Benzyl-9H-carbazol-4-yl)oxy]ethyl}-N-(2-methoxyethyl)amine] | 175 to 175.5 | 16
18 | CCNCCOc1cccc2c1c1ccccc1n2Cc1ccccc1 [Example 37, 2-[(9-benzyl-9H-carbazol-4-yl)oxy]-N-ethyl-1-ethanamine] |  | 11
19 | c1ccc(Cn2c3ccccc3c3c(OCCN4CCCC4)cccc32)cc1 [Example 38, 9-Benzyl-4-[2-(1-pyrrolidinyl)ethoxy]-9H-carbazole] |  | 6.9

Row | Compound | melting point [°C] | Ki [1] [nM]
20 | c1ccc(Cn2c3ccccc3c3c(OCCN4CCCCC4)cccc32)cc1 [Example 39, 9-Benzyl-4-[2-(1-piperidinyl)ethoxy]-9H-carbazole] | 113.5 to 114.5 | 12
21 | c1ccc(Cn2c3ccccc3c3c(OCCN4CCNCC4)cccc32)cc1 [Example 40, 9-Benzyl-4-[2-(1-piperazinyl)ethoxy]-9H-carbazole] |  | 88
22 | NCCOc1cccc2c1c1cccc(F)c1n2Cc1ccccc1 [Example 41, 2-[(9-Benzyl-8-fluoro-9H-carbazol-4-yl)oxy]ethylamine] | 122.25 to 123 | 2.4
23 | CCN(CC)CCOc1cccc2c1c1cccc(F)c1n2Cc1ccc(F)cc1 [Example 42, N,N-Diethyl-N-(2-{[8-fluoro-9-(4-fluorobenzyl)-9H-carbazol-4-yl]oxy}ethyl)amine] | 59 to 60 | 20
24 | CCN(CC)CCOc1cccc2c1c1cc(Cl)ccc1n2Cc1ccccc1 [Example 43, N-{2-[(9-Benzyl-6-chloro-9H-carbazol-4-yl)oxy]ethyl}-N,N-diethylamine] | 96 to 97.5 | 182
25 | CCN(CC)CCOc1cccc2c1c1cc(F)ccc1n2Cc1ccccc1 [Example 44, N-{2-[(9-Benzyl-6-fluoro-9H-carbazol-4-yl)oxy]ethyl}-N,N-diethylamine] | 68 to 69 | 180
26 | CCN(CC)CCOc1cccc2c1c1cc(C)ccc1n2Cc1ccccc1 [Example 45, N-{2-[(9-Benzyl-6-methyl-9H-carbazol-4-yl)oxy]ethyl}-N,N-diethylamine] |  | 6.6
27 | CCN(CC)CCOc1cccc2c1c1cc(C)ccc1n2Cc1ccc(F)cc1 [Example 48, N,N-Diethyl-N-(2-{[9-(4-fluorobenzyl)-6-methyl-9H-carbazol-4-yl]oxy}ethyl)amine] |  | 123
28 | NCCOc1cccc2c1c1ccccc1n2Cc1csc2ccc(Cl)cc12 [Example 50, 2-({9-[(5-Chloro-1-benzothiophen-3-yl)methyl]-9H-carbazol-4-yl}oxy)ethylamine] |  | 138
29 | Cc1nc(Cn2c3ccccc3c3c(OCCN)cccc32)cs1 [Example 51, 2-({9-[(2-Methyl-1,3-thiazol-4-yl)methyl]-9H-carbazol-4-yl}oxy)ethylamine] |  | 113
30 | NCCOc1c(Cl)ccc2c1c1ccccc1n2Cc1ccccc1 [Example 52, 2-[(9-Benzyl-3-chloro-9H-carbazol-4-yl)oxy]ethylamine] |  | 24
31 | NCCOc1cccc2c1c1ccccc1n2Cc1cccc(Br)c1 [Example 53, 2-{[9-(3-Bromobenzyl)-9H-carbazol-4-yl]oxy}ethylamine] |  | 127
32 | NCCOc1cccc2c1c1ccccc1n2Cc1cccc(F)c1 [Example 54, 2-{[9-(3-Fluorobenzyl)-9H-carbazol-4-yl]oxy}ethylamine] |  | 101
33 | Cc1ccc(Cn2c3ccccc3c3c(OCCN)cccc32)cc1 [Example 55, 2-{[9-(4-Methylbenzyl)-9H-carbazol-4-yl]oxy}ethylamine] |  | 482
34 | NCCOc1cccc2c1c1ccccc1n2Cc1ccccc1F [Example 56, 2-{[9-(2-Fluorobenzyl)-9H-carbazol-4-yl]oxy}ethylamine] |  | 119
35 | COc1cccc(Cn2c3ccccc3c3c(OCCN)cccc32)c1 [Example 57, 2-{[9-(3-Methoxybenzyl)-9H-carbazol-4-yl]oxy}ethylamine] |  | 110
36 | Cc1cccc(Cn2c3ccccc3c3c(OCCN)cccc32)c1 [Example 59, 2-{[9-(3-Methylbenzyl)-9H-carbazol-4-yl]oxy}ethylamine] |  | 20
37 | COc1ccc2c(c1)c1c(OCCN)cccc1n2Cc1ccccc1 [Example 61, 2-[(9-Benzyl-6-methoxy-9H-carbazol-4-yl)oxy]ethylamine] |  | 27
38 | COc1ccc2c3c(OCCN)cccc3n(Cc3ccccc3)c2c1 [Example 62, 2-[(9-Benzyl-7-methoxy-9H-carbazol-4-yl)oxy]ethylamine] |  | 60
